According to US4789736A, “Complexes of technetium-99m with propylene amine oximes” (Amersham International plc, priority 1985, dated 1988):
“Also recorded” adds a separate entry of the source. Like-named read-outs stand apart in the source and are kept apart here. Values belong to the molecule of their own block, whether it stands above or below them.

Tests used:
[1] = Rat biodistribution of Tc-99m complexes from isolated stereoisomers (Example 24); conditions: for % id/organ, Blood / % id/organ, Brain / % id/organ, Heart / % id/organ, Liver: (a) diastereoisomers, rats, mean from 3 animals; for difference in brain uptake, dl-isomer versus meso-isomer: see Example 24
Experimental: (§2) 0.1 ml of the Tc-99m complex solution was administered by intravenous injection (lateral tail vein) to each of five or six rats (140-220 g). The injected dose was equivalent to approximately 1 mCi of Tc-99m. Three rats were sacrificed at 2 minutes post injection, and 3 at 1 hour or 2 at 2 hours post injection. At dissection, the organs and blood samples shown in the following table were taken, and assayed for radioactivity. The uptake in each organ or tissue was calculated as a percentage of the total activity recovered.
(§3) Data in Tables (a) and (b) are the mean from 3 animals at each time point.

[2] = Rat biodistribution of Tc-99m complexes of separated diastereoisomers of compound 1 (Example 23); assay type: in vivo, rats; conditions: for % id/organ, Blood / % id/organ, Brain / % id/organ, Liver: rats
From the text: The experiment of Example 22 was repeated using the separated diastereoisomers of compound 1. The results are given in the Table below and should be compared to those for compound 1 (the mixture) in the Table in […].

[3] = Clinical comparison of dl and meso diastereoisomers of Compound 1, whole body scanning (Example 25a); assay type: in vivo, normal volunteer subjects (human); conditions: 20 minutes p.i.; mean; human
Experimental: All clinical studies, involving comparisons between the Tc-99m complexes of dl and meso, and d,l and dl stereoisomers of Compound 1 were conducted in normal volunteer subjects at Aberdeen Royal Infirmary.
(a) Comparison of dl and meso diastereoisomers of Compound 1
Data is then taken from area of interest studies employing a whole body scanning device.

[4] = Blood clearance in human volunteers; assay type: in vivo, human volunteer subjects; conditions: for % id in blood: unseparated dl/meso mixture, human
From the text: (§1) The following data allows comparison of the relative performance of the complexes of compounds 1 and 2 (an unseparated dl/meso mixture in each case) in human volunteer subjects.

[5] = Animal biodistribution of Tc-99m complexes of ligands, no separation of stereoisomers (Example 22); assay type: in vivo, rats; conditions: i.v. rats, mean of 3 animals
Experimental: The ratio of diastereoisomers in the Tc-99m complexes used in this experiment is not known.
The results at 2 minutes and 1 hour p.i. are the mean of 3 animals.
The results at 2 hours p.i. are the mean of 2 animals.

[6] = In vitro stability of Tc-99m complexes (radiochemical purity by thin layer chromatography); assay type: physicochemical
Experimental: Glass fibre strips impregnated with silica gel form the stationary phase of a fast and accurate analytical system. Two strips, each measuring 20 cm×2 cm were used in each analysis. Approximately five microliters of the solution containing the complex was applied 1 cm from the base of each strip, and one strip developed with saline, the other with methylethylketone (MEK).
Determination of the distribution of radioactivity along each strip was conducted by means of a 100 channel analysis system interfaced to a Nova computer, programmed for peak integration. The Table below indicates the RF values of the major components of the Tc-99m solutions. The observed radiochemical purity of the Tc-99m complexes was generally greater than 80%.
Radiochemical purity determinations by thin layer chromatography were carried out at several time points following formation of the technetium complexes of compounds 1 and 2 (a dl/meso mixture in each case) to determine the stability of the complexes.

[7] = Whole body distribution in human volunteers; assay type: in vivo, human volunteer subjects; conditions: 2 hrs p.i.; unseparated dl/meso mixture; human
From the text: as §1
(ii) Whole body distribution

[8] = Tomographic imaging of the brain in man; assay type: in vivo, normal volunteers (human); conditions: in words; unseparated dl/meso mixture; human
Experimental: Tomographic images of the brain were determined using the same complexes in normal volunteers. The device used was a single head rotating gamma camera and minicomputer system. 64 25-second images were accumulated by the gamma camera during 360° circular rotation of the head and shoulders of the volunteer.

[9] = Clinical comparison of d, l and dl stereoisomers of Compound 1 (Example 25b); assay type: in vivo, normal volunteers (human); conditions: 30 minutes p.i.; mean of three studies; human
Experimental: The following table gives the mean of three studies for each stereoisomer, of percentage of injected dose in normal volunteers at 30 minutes p.i.

[10] = rat, in vivo
Experimental: as §2, §3

- % id/organ, Blood ([1]; 2 mins pi): 10.5 % id/organ
- % id/organ, Brain ([1]; 2 mins pi): 1.8 % id/organ
- % id/organ, Heart ([1]; 2 mins pi): 1.1 % id/organ
- % id/organ, Liver ([1]; 2 mins pi): 11.6 % id/organ
- % id/organ, Blood ([1]; 1 hr pi): 7.8 % id/organ
- % id/organ, Brain ([1]; 1 hr pi): 1.5 % id/organ
- % id/organ, Heart ([1]; 1 hr pi): 0.7 % id/organ
- % id/organ, Liver ([1]; 1 hr pi): 9.4 % id/organ
SMILES: CC(=NO)[C@H](C)NCCCN[C@@H](C)C(C)=NO (relative stereo) [Compound 2 d1]
- difference in brain uptake, dl-isomer versus meso-isomer ([1]; in words): do not show any marked difference in brain uptake

- % id/organ, Blood ([2]; 2 min p.i.): 5.33 % id/organ
- % id/organ, Brain ([2]; 2 min p.i.): 0.78 % id/organ
- % id/organ, Liver ([2]; 2 min p.i.): 26.86 % id/organ
- % id/organ, Blood ([2]; 1 hour p.i.): 3.17 % id/organ
- % id/organ, Brain ([2]; 1 hour p.i.): 0.53 % id/organ
- % id/organ, Liver ([2]; 1 hour p.i.): 24.24 % id/organ
- % injected activity, Bladder + Urine [3]: 0.6 % injected activity
- % injected activity, Brain [3]: 1.85 % injected activity
- % injected activity, Kidneys [3]: 1.3 % injected activity
- % injected activity, Liver [3]: 16.6 % injected activity
- % id/organ, Blood ([1]; 2 mins pi): 5.0 % id/organ
- % id/organ, Brain ([1]; 2 mins pi): 1.1 % id/organ
- % id/organ, Heart ([1]; 2 mins pi): 0.6 % id/organ
- % id/organ, Liver ([1]; 2 mins pi): 19.9 % id/organ
- % id/organ, Blood ([1]; 1 hr pi): 3.1 % id/organ
- % id/organ, Brain ([1]; 1 hr pi): 0.7 % id/organ
- % id/organ, Heart ([1]; 1 hr pi): 0.2 % id/organ
- % id/organ, Liver ([1]; 1 hr pi): 23.7 % id/organ
SMILES: CC(=NO)[C@H](C)NCC(C)(C)CN[C@H](C)C(C)=NO [Compound 1 meso, meso-4,8-Diaza-3,6,6,9-tetramethylundecane-2,10-dione bis oxime]

- % id in blood ([4]; 14 minutes post injection): 11.06 % id
- % id in blood ([4]; 40 minutes post injection): 6.9 % id
- % id in blood ([4]; 60 minutes post injection): 5.93 % id
- % id in blood ([4]; 250 minutes post injection): 3.98 % id
- % id/organ, Blood ([5]; 2 min pi): 14.6 % id/organ
- % id/organ, Brain ([5]; 2 min pi): 1.6 % id/organ
- % id/organ, Heart ([5]; 2 min pi): 0.5 % id/organ
- % id/organ, Liver ([5]; 2 min pi): 10.9 % id/organ
- % id/organ, Blood ([5]; 1 hr pi): 12.4 % id/organ
- % id/organ, Brain ([5]; 1 hr pi): 1.4 % id/organ
- % id/organ, Heart ([5]; 1 hr pi): 0.5 % id/organ
- % id/organ, Liver ([5]; 1 hr pi): 4.9 % id/organ
- remaining at 2 min ([6]; 2 min post formation, dl/meso mixture, read-out: % of the desired Tc-99m complex): 82%
- remaining at 1 h ([6]; 60 min post formation, dl/meso mixture, read-out: % of the desired Tc-99m complex): 60%
- remaining at 2 h ([6]; 120 min post formation, dl/meso mixture, read-out: % of the desired Tc-99m complex): 47%
- percent of the Tc-99m not in the form of the complex, Compound 2 relative to Compound 1 ([6]; at all times): more than twice as great
- Whole body distribution, Bladder [7]: 21.02
- Whole body distribution, Brain [7]: 3.48
- Whole body distribution, Liver [7]: 13.21
SMILES: CC(=NO)C(C)NCCCNC(C)C(C)=NO (racemic) [Compound 2, 4,8-Diaza-3,9-dimethylundecane-2,10-dione bis oxime]
- blood and tissue background clearance of activity in humans ([4]; in words, compound 1 versus complex of compound 2): Better blood and tissue background clearance
- in vitro stability of the Tc-99m complex ([6]; in words, complex of compound 1 versus compound 2): greatly inferior to that of the complex of compound 1; also recorded: Far better in vitro stability; also recorded: rapid in vitro degradation
- quality of tomographic images of the brain [8]: less good, due to a higher level of background radiation

- % id/organ, Blood ([1]; 2 mins pi): 6.9 % id/organ
- % id/organ, Brain ([1]; 2 mins pi): 1.7 % id/organ
- % id/organ, Heart ([1]; 2 mins pi): 0.6 % id/organ
- % id/organ, Liver ([1]; 2 mins pi): 17.9 % id/organ
- % id/organ, Blood ([1]; 1 hr pi): 2.8 % id/organ
- % id/organ, Brain ([1]; 1 hr pi): 1.4 % id/organ
- % id/organ, Heart ([1]; 1 hr pi): 0.2 % id/organ
- % id/organ, Liver ([1]; 1 hr pi): 20.7 % id/organ
SMILES: CC(=NO)[C@H](C)NCCCN[C@H](C)C(C)=NO [Compound 2 meso]
- difference in brain uptake, dl-isomer versus meso-isomer ([1]; in words): do not show any marked difference in brain uptake

- % id/organ, Blood ([5]; 2 min pi): 7.4 % id/organ
- % id/organ, Brain ([5]; 2 min pi): 1.0 % id/organ
- % id/organ, Liver ([5]; 2 min pi): 20.6 % id/organ
- % id/organ, Blood ([5]; 1 hr pi): 3.3 % id/organ
- % id/organ, Brain ([5]; 1 hr pi): 0.5 % id/organ
- % id/organ, Liver ([5]; 1 hr pi): 36.5 % id/organ
SMILES: CCC(CC)(CNC(C)C(C)=NO)CNC(C)C(C)=NO (stereo not drawn) [Compound 7, 4,8-Diaza-6,6-diethyl-3,9-dimethylundecane-2,10-dione bis oxime]

- % id/organ, Blood ([2]; 2 min p.i.): 11.42 % id/organ
- % id/organ, Brain ([2]; 2 min p.i.): 1.99 % id/organ
- % id/organ, Liver ([2]; 2 min p.i.): 9.42 % id/organ
- % id/organ, Blood ([2]; 1 hour p.i.): 10.17 % id/organ
- % id/organ, Brain ([2]; 1 hour p.i.): 1.90 % id/organ
- % id/organ, Liver ([2]; 1 hour p.i.): 9.25 % id/organ
- difference in brain uptake of the two isomers (factor) ([2]; dl versus meso, the better is the dl-isomer): 2.3
- % injected activity, Bladder + Urine [3]: 2.28 % injected activity
- % injected activity, Brain [3]: 4.22 % injected activity
- % injected activity, Kidneys [3]: 3.50 % injected activity
- % injected activity, Liver [3]: 10.22 % injected activity
- % id/organ, Blood ([1]; 2 mins pi): 11.0 % id/organ
- % id/organ, Brain ([1]; 2 mins pi): 2.1 % id/organ
- % id/organ, Heart ([1]; 2 mins pi): 1.2 % id/organ
- % id/organ, Liver ([1]; 2 mins pi): 11.3 % id/organ
- % id/organ, Blood ([1]; 1 hr pi): 8.6 % id/organ
- % id/organ, Brain ([1]; 1 hr pi): 1.6 % id/organ
- % id/organ, Heart ([1]; 1 hr pi): 0.7 % id/organ
- % id/organ, Liver ([1]; 1 hr pi): 11.9 % id/organ
- percentage of injected dose, Brain [9]: 4.16 percentage of injected dose
- percentage of injected dose, Kidney [9]: 3.03 percentage of injected dose
- percentage of injected dose, Liver [9]: 10.73 percentage of injected dose
SMILES: CC(=NO)[C@H](C)NCC(C)(C)CN[C@@H](C)C(C)=NO (relative stereo) [Compound 1 d1, dl-4,8-Diaza-3,6,6,9-tetramethylundecane-2,10-dione bis oxime]
- brain retention and brain imaging, dl-isomer versus meso-isomer ([1]; in words): surprisingly superior to the complex of the meso-isomer

SMILES: CC(=NO)C(C)NCC(C)CNC(C)C(C)=NO (stereo not drawn) [Compound 1 1]
- % id/organ, Blood ([10]; 2 min): 11.0 % id/organ
- % id/organ, Brain ([10]; 2 min): 2.6 % id/organ
- % id/organ, Liver ([10]; 2 min): 9.6 % id/organ
- % id/organ, Blood ([10]; 60 min): 11.1 % id/organ
- % id/organ, Brain ([10]; 60 min): 2.2 % id/organ
- % id/organ, Liver ([10]; 60 min): 7.7 % id/organ
- percentage of injected dose, Brain [9]: 4.30 percentage of injected dose
- percentage of injected dose, Kidney [9]: 4.0 percentage of injected dose
- percentage of injected dose, Liver [9]: 8.06 percentage of injected dose
